Counter-ions that a name gives are not always drawn.
Each compound was assayed on PRKACA-PRKAR2A interaction (SmBiT-PRKACA / LgBiT-PRKAR2A), protein kinase A. Details: 0.5 h, 20 µM; inhibitor.
Set-up: NanoLuc complementation counter-screen in cell extract, PRKACA with PRKAR2A, loss of luminescence, detects NanoLuc interference

`COc1ccc(N(C(=O)Oc2c(C)cccc2C)c2ccnc(Nc3ccc(N4CCN(C)CC4)cc3)n2)c(OC)c1` [UM0142819:01, WH-4-023] was tested, and the “Inh (PKA)” value was 37.82%.

Same assay, conditions: counter-screen for NanoLuc interference, 0.5 h, 20 µM, inhibitor, Inh (PKA)

Point of comparison: `Cc1cc(Nc2cc(N3CCN(C)CC3)nc(/C=C/c3ccccc3)n2)n[nH]1` [UM0141725:01, ENMD-2076], “Inh (PKA)” value 15.95%. Against it:
- C[C@@H](N)[C@H]1CC[C@H](C(=O)Nc2ccncc2)CC1 [UM0141498:01, Y-27632 dihydrochloride] — lower, -3.616%
- CCN(C)C(=O)Oc1cccc([C@H](C)N(C)C)c1 [UM0141620:01, Rivastigmine] — lower, 1.357%
- COc1cc2nccc(Oc3ccc(NC(=O)C4(C(=O)Nc5ccc(F)cc5)CC4)cc3)c2cc1OC [UM0141491:01, Cabozantinib (XL184, BMS-907351)] — lower, 10.46%
- O=C(/C=C/c1cccnc1)NCCCCC1CCN(C(=O)c2ccccc2)CC1 [UM0141821:01, FK866 (APO866)] — lower, 3.817%
- O=C(O)Cc1ccccc1Nc1c(Cl)cccc1Cl [UM0118146:04, Diclofenac Sodium] — lower, 5.073%

Same assay, conditions: counter-screen for NanoLuc interference; 0.5 h, 20 µM; inhibitor

Point of comparison: `COc1ccccc1S(=O)(=O)Nc1ccc2c(c1)CN(C)C(=O)N2` [UM0141750:01, PFI-1 (PF-6405761)], “Inh (PKA)” value 3.719%. Against it:
- COc1cc2c(cc1O)CC[C@@H]1[C@@H]2CC[C@]2(C)[C@@H](O)CC[C@@H]12 [UM0119979:04, 2-Methoxyestradiol (2-MeOE2)] — higher, 12.97%
- Cc1cc2c(cc1S(N)(=O)=O)S(=O)(=O)CCC2 [UM0118751:03, Meticrane] — lower, 1.197%
- Cc1c(F)cc(C(=O)NC2CC2)cc1-c1ccc(C(=O)NCC(C)(C)C)cn1 [UM0142557:01, Losmapimod] — lower, 0.7266%
- C[C@H](NC(=O)[C@@H](O)c1cc(F)cc(F)c1)C(=O)N[C@@H]1C(=O)N(C)c2ccccc2-c2ccccc21 [UM0141667:01, LY-411575] — higher, 13.09%
- CNS(=O)(=O)CCc1ccc2[nH]cc(C3CCN(C)CC3)c2c1 [UM0142462:01, Naratriptan] — lower, -0.5355%
- Cc1c(CN2CCN(S(C)(=O)=O)CC2)sc2c(N3CCOCC3)nc(-c3cnc(N)nc3)nc12 [UM0142817:01, GNE-477] — lower, 0.346%
- COc1cc2ncc(-c3ccccc3)nc2cc1OC [UM0127935:03, Tyrphostin AG 1296] — higher, 8.299%
- Cn1cc(-c2[nH]c3cc(NC(=O)[C@H](N)C4CCCCC4)cc4c3c2C=NNC4=O)cn1 [UM0142256:01, PF-477736] — higher, 39.56%
- CC(C)(C)c1cc(NC(=O)Nc2ccc(-c3cn4c(n3)sc3cc(OCCN5CCOCC5)ccc34)cc2)no1 [UM0130989:03, Quizartinib (AC220)] — lower, 1.247%
- CNCCC=C1c2ccccc2CCc2ccccc21 [UM0118370:03, Nortriptyline (hydrochloride)] — higher, 4.028%
- CN(C)CCC[C@@]1(c2ccc(F)cc2)OCc2cc(C#N)ccc21 [UM0121246:02, Escitalopram Oxalate] — lower, -0.3205%
- Nc1nccc(-c2c(-c3ccc(F)cc3)ncn2C2CCCCC2)n1 [UM0141603:01, PF-670462] — higher, 48.77%
- C#CCN[C@@H]1CCc2ccccc21 [UM0141810:01, Rasagiline Mesylate] — lower, 2.611%
- CC(=O)O[C@H]1C[C@@]2(C)[C@@H](C[C@@H](O)[C@H]3[C@@]4(C)CC[C@@H](O)[C@@H](C)[C@@H]4CC[C@@]32C)/C1=C(\CCC=C(C)C)C(=O)O [UM0142840:01, Fusidic Acid (sodium salt)] — lower, 1.888%
- COC1=CC(c2cc3ccccc3[nH]2)=N/C1=C\c1[nH]c(C)cc1C [UM0141758:01, Obatoclax mesylate (GX15-070)] — higher, 43.77%
- S=C(NCc1ccc2c(c1)OCO2)N1CCN(c2ncnc3c2oc2ccccc23)CC1 [UM0141771:01, Amuvatinib (MP-470, HPK 56)] — higher, 7.726%
- CCC(=O)NCC[C@@H]1CCc2ccc3c(c21)CCO3 [UM0121254:03, Ramelteon] — higher, 6.005%
- Cc1cn(-c2cc(NC(=O)c3ccc(C)c(Nc4nccc(-c5cnccn5)n4)c3)cc(C(F)(F)F)c2)cn1 [UM0142663:01, Radotinib(IY-5511)] — higher, 10.62%
- C=C[C@]1(C)C[C@@H](OC(=O)CS[C@@H]2C[C@H]3CC[C@@H](C2)N3C)[C@]2(C)[C@H](C)CC[C@]3(CCC(=O)[C@H]32)[C@@H](C)[C@@H]1O [UM0142402:01, Retapamulin] — higher, 4.258%
- C=C[C@@H]1C[C@]1(NC(=O)[C@@H]1C[C@@H](Oc2ncc(OC)c3ccc(Cl)cc23)CN1C(=O)[C@@H](NC(=O)OC(C)(C)C)C(C)(C)C)C(=O)NS(=O)(=O)C1CC1 [UM0141521:01, Asunaprevir (BMS-650032)] — lower, -7.752%
- Cc1cn(-c2cc(NC(=O)c3ccc(C)c(Nc4nccc(-c5cccnc5)n4)c3)cc(C(F)(F)F)c2)cn1 [UM0127956:03, Nilotinib(AMN-107)] — higher, 17.26%
- CC1CNc2c(cccc2S(=O)(=O)N[C@@H](CCCNC(=N)N)C(=O)N2CC[C@@H](C)C[C@@H]2C(=O)O)C1 (stereo partly shown) [UM0142015:01, Argatroban] — lower, 1.414%
- CC(c1cc2ccccc2s1)N(O)C(N)=O (stereo not shown) [UM0141885:01, Zileuton] — lower, 2.302%
- C=C1CC[C@H](O)C/C1=C/C=C1\CCC[C@]2(C)[C@@H]([C@H](C)CCCC(C)(C)O)CC[C@@H]12 [UM0142419:01, Calcifediol] — higher, 12.98%
- Nc1c2c(nc3ccccc13)CCCC2 [UM0118625:03, Tacrine hydrochloride] — lower, 1.154%
- COc1ccc(-c2cc3c(C)nc(N)nc3n([C@H]3CC[C@H](OCCO)CC3)c2=O)cn1 [UM0142064:01, PF-04691502] — higher, 7.804%
- O=C(O)c1ccc(N2C(=O)/C(=C\c3ccc(-c4ccc([N+](=O)[O-])cc4)o3)C=C2c2ccccc2)cc1 [UM0142546:01, 4E1RCat] — higher, 43.25%
- NC1(c2ccc(-c3nc4ccn5c(=O)[nH]nc5c4cc3-c3ccccc3)cc2)CCC1 [UM0130983:02, MK-2206 dihydrochloride] — higher, 6.14%
- OCCOCCN1CCN(C2=Nc3ccccc3Sc3ccccc32)CC1 [UM0142275:01, Quetiapine Fumarate] — higher, 6.997%
- C[C@]12CC[C@@H]3c4ccc(O)cc4CC[C@H]3[C@@H]1CCC2=O [UM0142038:01, Estrone] — higher, 7.468%
- COc1cc(N2CCC(N3CCN(C)CC3)CC2)ccc1Nc1ncnc(Nc2ccccc2S(=O)(=O)C(C)C)n1 [UM0141520:01, ASP3026] — lower, 2.084%
- N#CSc1cc(SC#N)c(N)nc1N [UM0141952:01, PR-619] — higher, 19.82%
- CCc1c2c(nc3ccc(O)cc13)-c1cc3c(c(=O)n1C2)COC(=O)[C@]3(O)CC [UM0142861:01, 7-Ethyl-10-hydroxycamptothecin] — higher, 8.347%
- COc1ccc(-c2ccc3c(N4CCOC[C@@H]4C)nc(N4CCOC[C@@H]4C)nc3n2)cc1CO [UM0141954:01, AZD8055] — higher, 6.662%
- O=c1cc(N2CCOCC2)oc2c(-c3cccc4c3sc3ccccc34)cccc12 [UM0135467:02, NU7441 (KU-57788)] — higher, 24.55%
- Cc1ccc(C(=O)Cn2c3c(sc2=N)CCCC3)cc1 [UM0134099:02, Pifithrin-?] — higher, 9.08%
- Clc1ccccc1CN1CCc2sccc2C1 [UM0118440:03, Ticlopidine HCl] — higher, 23.02%
- COc1cc2ncnc(Sc3nnc(C)s3)c2cc1OC [UM0142197:01, SKLB1002] — lower, -0.2342%
- Nc1nc(Nc2ccc(S(N)(=O)=O)cc2)nn1C(=O)c1c(F)cccc1F [UM0141712:01, JNJ-7706621] — higher, 15.42%
- CCN1/C(=C/C(C)=O)Sc2ccc(OC)cc21 [UM0142254:01, TG003] — lower, 0.5333%
- CC(C)C[C@H](NC(=O)[C@H](CC(C)C)NC(=O)[C@H](CC(C)C)NC(=O)OCc1ccccc1)B(O)O [UM0141934:01, MG-262] — lower, 2.364%
- CCN1CCN(c2cc3c(cc2F)c(=O)c(C(=O)O)cn3C2CC2)CC1 [UM0132985:02, Enrofloxacin] — lower, 1.786%
- Cc1ccc(=O)n(-c2ccccc2)c1 [UM0133133:02, Pirfenidone] — lower, 0.9802%
- CN(C)C/C=C/C(=O)Nc1ccc(C(=O)Nc2cccc(Nc3ncc(Cl)c(-c4c[nH]c5ccccc45)n3)c2)cc1 [UM0142143:01, THZ1] — higher, 81.51%
- Cc1ccc(NC(=O)c2cccc(N(C)C)c2)cc1NC(=O)c1ccc(O)cc1 [UM0130998:02, ZM336372] — higher, 21.08%
- Cc1cccc(Nc2ccncc2S(=O)(=O)NC(=O)NC(C)C)c1 [UM0119116:03, Torsemide] — higher, 21.46%
- Cn1c(=O)c2[nH]cnc2n(C)c1=O [UM0118147:03, Aminophylline] — lower, 0.6753%
- Nc1ncnc2n[nH]c(Nc3ccc(F)cc3)c12 [UM0127890:04, CGP 57380] — higher, 5.777%
- COc1ccc(C(=O)Nc2sc3c(c2C(N)=O)CCCC3)cc1OC [UM0127852:02, TCS 359] — higher, 19.65%
- Cc1cc(C)nc(NS(=O)(=O)c2ccc(NC(=S)NC(=O)COc3ccc(Br)cc3Cl)cc2)n1 [UM0141974:01, ZCL278] — higher, 9.562%
- O=C1NC(=O)C(c2cnc3ccccn23)=C1c1cn2c3c(cc(F)cc13)CN(C(=O)N1CCCCC1)CC2 [UM0141581:01, LY2090314] — higher, 40.49%
- O=C(Nc1ccncc1)c1cc([N+](=O)[O-])ccc1Cl [UM0141773:01, T0070907] — higher, 6.091%
- C[C@@H]1O[C@@H](CC(=O)O)CC2=C1C(=O)c1c(O)cccc1C2=O [UM0141940:01, Nanaomycin A] — higher, 18.84%
- CCOC(=O)[C@H](CCc1ccccc1)N[C@@H](C)C(=O)N1[C@H](C(=O)O)C[C@@H]2CCC[C@@H]21 [UM0133179:02, Ramipril] — lower, 0.6461%
- O=C(NC[C@H]1CN(c2ccc(N3CCOCC3=O)cc2)C(=O)O1)c1ccc(Cl)s1 [UM0141794:01, Rivaroxaban] — higher, 3.84%
- O=C(CCN1CCN(C(=O)OCc2cc(Cl)cc(Cl)c2)CC1)c1ccc2[nH]c(=O)oc2c1 [UM0141604:01, PF-8380] — higher, 13.11%
